In patent US20220348571A1, “DIHYDROPYRIMIDINE DERIVATIVES AND USES THEREOF IN THE TREATMENT OF HBV INFECTION OR OF HBV-INDUCED DISEASES” (Janssen Sciences Ireland Unlimited Company, priority 2018, published 2022):
Where a name gives a salt, the structure may show the parent alone. Read-outs that look alike come from different tables or passages of the source.

Tests used:
Type in all cases: cell-based
HBV = assay: Anti-viral assay in HepG2.2.15 cells: HBV inhibitory activity (HBV DNA in culture medium by q-PCR); settings: Hepatitis B virus, HepG2.2.15, 144 h
Source text: (§1) Example 2: Anti-Viral Assay in HepG2.2.15 Cells
(§2) 1.1. Cell line • HepG2.2.15 (the HepG2.2.15 cell line can be produced by transfection of the HepG2 cell line as described in Sells, Chen, and Acs 1987 (Proc. Natl. Acad. Sci. USA 84:1005-1009), and the HepG2 cell line is available from ATCC® under number HB-8065™).
(§3) Seed the cell HepG2.2.15 cells into 96-well plate in 2% FBS culture medium at the density of 40,000 cells/well and 5,000 cells/well for HBV inhibitory activity and cytotoxicity determination, respectively. After seeding, incubate the cell plates at 37° C., 5% CO2 overnight. The next day, medium containing compounds is added to the cell to treat the cells for 6 days with medium refreshed once in the middle of the treatment. 8 dose points with 3 folds dilution of each compound were adopted and the highest concentration of the compounds is 10 uM and 100 uM for HBV inhibitory activity and cytotoxicity determination, respectively.
The HBV DAN change in the cell culture medium induced by the compounds is measured by q-PCR method. Briefly, the HBV DNA in the culture medium is extracted using QIAamp 96 DNA Blood Kit according to the manual and then quantified by q-PCR using the primers and probe in the table below.
(§4) 2.2. DATA Analysis EC50 and CC50 values are calculated by the GRAPHPAD PRISM software.

[1] = Cytotoxicity determination in HepG2.2.15 cells (CCK-8); settings: human, 6 days treatment, CCK-8, highest concentration 100 uM
Source text: as §1, §2, §3
(§5) After 6 days of compounds treatment, add 20 μl CCK-8 reagents to each well of cytotoxicity assay plates, incubate the plate at 37° C., 5% CO2 for 2.5 h and measure the absorbance at 450 nm wavelength, at the same time read the absorbance at 630 nm wavelength as reference.
as §4

HepG2.2.15 cells = assay: as above; settings: 6 days treatment, CCK-8, highest concentration 100 uM
Source text: as §1, §2, §3, §5, §4

[2] = HepG2.2.15 cells, 6 days treatment, HBV DNA in culture medium by q-PCR, highest concentration 10 uM, read-out: EC50

Row | Compound | EC50 (HBV; [2]) [nM] | CC50 at 6 days [1] [nM] | EC50 (HBV) [nM] | CC50 (HepG2.2.15 cells) [nM]
1 | CCOC(=O)C1=C([C@H]2CC[C@@H](n3nccc3C(=O)O)CC2)NC(c2nccs2)=NC1c1ccc(F)c(F)c1Cl (single isomer, unassigned) [Compound I-39-B, (cis)-1-(4-(6-(2-Chloro-3,4-difluorophenyl)-5-(ethoxycarbonyl)-2-(thiazol-2-yl)-3,6-dihydropyrimidin-4-yl)cyclohexyl)-1H-pyrazole-5-carboxylic acid] | 82 | – | – | –
2 | COC(=O)C1=C(C2CCN(c3ncc(C)c(C(=O)O)n3)CC2)NC(c2nccs2)=NC1c1cccc(F)c1C (single isomer, unassigned) [II-5-B] | 49 | 25800 | – | –
3 | CCOC(=O)C1=C(C2CCN(c3nc(C)c(C(=O)O)o3)CC2)NC(c2nccs2)=NC1c1ccc(F)c(F)c1Cl (single isomer, unassigned) [II-64-B, Lithium 2-(4-(6-(2-chloro-3,4-difluorophenyl)-5-(ethoxycarbonyl)-2-(thiazol-2-yl)-3,6-dihydropyrimidin-4-yl)piperidin-1-yl)-4-methyloxazole-5-carboxylate] | – | – | 75 | 6840
4 | CCOC(=O)C1=C(C2CCN(c3ncc(C(=O)O)c(OC)n3)CC2)NC(c2nccs2)=NC1c1ccc(F)c(F)c1Cl (single isomer, unassigned) [II-72-B, 2-(4-(6-(2-Chloro-3,4-difluorophenyl)-5-(ethoxycarbonyl)-2-(thiazol-2-yl)-3,6-dihydropyrimidin-4-yl)piperidin-1-yl)-4-methoxypyrimidine-5-carboxylic acid] | 62 | 5590 | – | –
5 | CCOC(=O)C1=C(C2CCN(c3cnc(C(=O)O)s3)CC2)NC(c2nccs2)=NC1c1ccc(F)c(F)c1Cl (single isomer, unassigned) [II-76-B, 5-(4-(6-(2-Chloro-3,4-difluorophenyl)-5-(ethoxycarbonyl)-2-(thiazol-2-yl)-3,6-dihydropyrimidin-4-yl)piperidin-1-yl)thiazole-2-carboxylate lithium salt] | – | – | 90 | 6680
6 | CCOC(=O)Cc1coc([C@H]2CC[C@H](C3=C(C(=O)OCC)C(c4ccc(F)c(F)c4Cl)N=C(c4nccs4)N3)CC2)n1 (single isomer, unassigned) [VII-23-Y, (trans)-Ethyl 4-(2-chloro-3,4-difluorophenyl)-(4-(4-(2-ethoxy-2-oxoethyl)oxazol-2-yl)cyclohexyl)-2-(thiazol-2-yl)-1,4-dihydropyrimidine-5-carboxylate] | – | 8180 | – | –
